{
  "source": "patent US11846640B2",
  "about": "“Identification of anticoagulants in a sample” (DSM IP Assets B.V., priority 2013, dated 2023)",
  "assay_type_in_all_cases": "biochemical, human",
  "key": {"[1]": {"test_system": "plasma samples", "experiment": "PT (HemosIL PT recombiplastin) clotting time", "conditions": "for Clotting time with PT: Table 6, spiked plasma, mean", "protocol": "In order to address the above question, i.e. to determine the nature of an anticoagulant in a sample, a combination of several methods has to be performed, including PiCT® Method 1, PiCT® Method 4, aPTT (HemosIL™ aPTT SP), PT (HemosIL™ PT recombiplastin), and sometimes even a modified PiCT® Method 1 wherein polybrene has been added. In order to simulate this, plasma samples spiked with different levels of anticoagulants were analyzed using the ACL TOP® 500 analyzer."}, "[2]": {"test_system": "normal plasma pool (NPP)", "experiment": "PiCT Method 1 (standard Pefakit PiCT) clotting time on ACL TOP 500", "conditions": "for Clotting time with PiCT ® Method 1: spiked plasma", "text": "As described by Korte et al. (supra) or in EP 1240528, Pefakit® PiCT® is a functional clotting assay based on the direct activation of the prothrombinase complex which results in a fine-tuned analytical output directly proportional to the final anticoagulant activity of the factor Xa or factor IIa inhibitors (see Calatzis, Haemostasis 2000, 30:172-174). To perform the Pefakit® PiCT® test (referred to herein as standard “PiCT® or PiCT® Method 1), a defined amount of PiCT® activator (=reagent 1) is added to a sample, such as, e.g., plasma. The mixture is allowed to proceed at 37° C. for a specific period of time. The Start reagent (=reagent 2) is then added to the mixture and the time required for clot formation is measured. The presence of anticoagulants in the samples dose-dependently prolongs the time to clot. Pefakit® PiCT® is adapted to laboratory instruments based on mechanical or optical detection systems, including but not limited to ACL TOP® family (Instrumentation Laboratory), preferably ACL TOP® 500, STA Compact® series (Stago) or the BCS® XP series (Siemens).\nThe 4 methods (see above) are in more detail described in the Examples. Specific pipetting schemes were designed using NPP spiked with incremental amounts of anticoagulants in order to achieve high reproducibility of the test system, which is required for drug identification including use in a POC system. With regards to the ACL TOP® 500 analyzer, PiCT® Method 1 to 4 has been established as follows: • PiCT® Method 1: 50 μl of plasma is incubated for 180 sec with 50 μl of reagent 1 and afterwards 50 μl of reagent 2 is added and the time to clot is recorded on the ACL TOP® 500 (i.e. pipetting scheme: P-50/A-50/I-180/50-S). This method is in particularly useful for detection of UFH, LMWH or hirudin. • PiCT® Method 2: P-75/A-65/I-180/35-S on the ACL TOP® 500 or P-80/A-65/I-180/40-S on the STA Compact® or P-75/A-65/I-180/S-40 on the BCS® XP. This method is in particularly useful for fondaparinux. • PiCT® Method 3: P-90/A-70/I-180/40-S on the ACL TOP® 500 or STA Compact®, or P-70/A-60/I-180/45-S on the BCS® XP. This method is in particularly useful for dabigatran or argatroban. • PiCT® Method 4: P-140/S-45/I160/A-40 on the ACL TOP® 500 or STA Compact®, or P-125/S-45/I-150/A-40 on the BCS® XP. This method is in particularly useful for rivaroxaban or apixaban.\nWith the normal PiCT®, i.e. PiCT® Method 1, wherein 50 μl of plasma is mixed with the same amount of reagent 1 (PiCT® activator), incubated for 180 sec and mixed with the same amount of reagent 2 (PiCT® start reagent) in a ACL TOP® 500 analyzer, the presence of NOACs cannot be determined in a sample. This is true even at high levels of said drugs in the sample, i.e. in the range of 300 ng/ml. Thus, in order to determine which NOAC is present in the sample, a combination of PiCT® Method 1 and PiCT® method 4 has to be used (see above for detailed description). To confirm this, spiked plasma samples with different levels of NOACs were prepared and the clotting time measured using first PiCT® Method 1 followed by PiCT® Method 4. […] In case of dabigatran present in the sample, both PiCT® Method 1 (which had to be adapted, i.e. PiCT® Method 3) and 4 are out of range as indicated in bold."}, "[3]": {"test_system": "normal plasma pool (NPP)", "experiment": "PiCT Method 4 (inverted PiCT) clotting time on ACL TOP 500", "conditions": "for Clotting time: Table 10A, PiCT Method 4, NPP spiked, mean n = 4; for PiCT ® method 4 clotting time: Table 11", "protocol": "The present invention is in one aspect directed to the use of a clotting assay, in particular the PiCT® testing method on a detection system such as e.g. the ACL TOP® 500 analyzer and to a method to quantitatively and qualitatively detect anticoagulants in a sample, e.g. blood or plasma. […] PiCT® Method 4 or PiCT® inverted includes that first the start reagent is added to the sample, the mixture allowed to proceed according to the manufacturer's instructions followed by addition of the activator, i.e. a reversed order compared to standard PiCT® (see above). PiCT® Method 1 to 4 is described in more detail in the Examples.\nThe 4 methods (see above) are in more detail described in the Examples. Specific pipetting schemes were designed using NPP spiked with incremental amounts of anticoagulants in order to achieve high reproducibility of the test system, which is required for drug identification including use in a POC system. With regards to the ACL TOP® 500 analyzer, PiCT® Method 1 to 4 has been established as follows: • PiCT® Method 1: 50 μl of plasma is incubated for 180 sec with 50 μl of reagent 1 and afterwards 50 μl of reagent 2 is added and the time to clot is recorded on the ACL TOP® 500 (i.e. pipetting scheme: P-50/A-50/I-180/50-S).\nAfter calculation of the RR for the different kind of anticoagulants (see Example 1) samples of NPP spiked with incremental amounts of anticoagulants were used in the ACL TOP® 500, wherein 45 μl start reagent was incubated with 140 μl plasma for 60 sec. The time to clot was recorded after addition of 40 μl of activator (i.e. so-called inverted PiCT®)."}},
  "data": [
    {"smiles": "CC1CNc2c(cccc2S(=O)(=O)N[C@@H](CCCNC(=N)N)C(=O)N2CC[C@@H](C)C[C@@H]2C(=O)O)C1", "note": "(stereo partly shown) [argatroban]", "values": [
      {"measurement": "Clotting time with PT", "setting": "[1]; 0.3 μg", "value": 15.0, "unit": "s"},
      {"measurement": "Clotting time with PT", "setting": "[1]; 1.5 μg", "value": 31.2, "unit": "s"},
      {"measurement": "Clotting time with PiCT ® Method 1", "setting": "[2]; Table 6, 0.3 μg, mean", "value": 98.5, "unit": "s"},
      {"measurement": "Clotting time with PiCT ® Method 1", "setting": "[2]; Table 6, 1.5 μg, mean", "value": 150.3, "unit": "s"},
      {"measurement": "Clotting time with PiCT ® Method 4", "setting": "[3]; Table 4, NPP spiked with 0.3 μg per ml", "value": 147, "unit": "s"},
      {"measurement": "Clotting time with PiCT ® Method 4", "setting": "[3]; Table 6, spiked plasma, 0.3 μg, mean", "value": 147.4, "unit": "s"},
      {"measurement": "Clotting time with PiCT ® Method 4", "setting": "[3]; Table 6, spiked plasma, 1.5 μg, mean", "value": 300.0, "unit": "s"}
    ]},
    {"smiles": "O=C(NC[C@H]1CN(c2ccc(N3CCOCC3=O)cc2)C(=O)O1)c1ccc(Cl)s1", "note": "[rivaroxaban]", "values": [
      {"measurement": "Clotting time with PT", "setting": "[1]; 50 ng", "value": 12.2, "unit": "s"},
      {"measurement": "Clotting time with PT", "setting": "[1]; 200 ng", "value": 20.3, "unit": "s"},
      {"measurement": "PT clotting time relative to reference range (RR)", "setting": "[1]; only at higher doses, in the range of 200 ng or more", "value": "above the RR"},
      {"measurement": "Clotting time with PiCT ® Method 1", "setting": "[2]; Table 5, 20 ng per ml (title: Method 3 for dabigatran)", "value": 17, "unit": "s"},
      {"measurement": "Clotting time with PiCT ® Method 1", "setting": "[2]; Table 5, 35 ng per ml (title: Method 3 for dabigatran)", "value": 18, "unit": "s"},
      {"measurement": "Clotting time with PiCT ® Method 1", "setting": "[2]; Table 5, 300 ng per ml (title: Method 3 for dabigatran)", "value": 29.3, "unit": "s"},
      {"measurement": "Clotting time with PiCT ® Method 1", "setting": "[2]; Table 6, 50 ng, mean", "value": 19.0, "unit": "s"},
      {"measurement": "Clotting time with PiCT ® Method 1", "setting": "[2]; Table 6, 200 ng, mean", "value": 25.5, "unit": "s"},
      {"measurement": "Clotting time with standard PiCT (Method 1) relative to reference range (RR)", "setting": "[2]; concentrations in the range of about 300 ng/ml in the sample", "value": "in the RR"},
      {"measurement": "Clotting time with PiCT ® Method 4", "setting": "[3]; Table 4, NPP spiked with 20 ng per ml", "value": 70, "unit": "s"},
      {"measurement": "Clotting time with PiCT ® Method 4", "setting": "[3]; Table 4, NPP spiked with 35 ng per ml", "value": 80, "unit": "s"},
      {"measurement": "Clotting time with PiCT ® Method 4", "setting": "[3]; Table 5, spiked plasma, 20 ng per ml", "value": 70, "unit": "s"},
      {"measurement": "Clotting time with PiCT ® Method 4", "setting": "[3]; Table 5, spiked plasma, 35 ng per ml", "value": 80, "unit": "s"},
      {"measurement": "Clotting time with PiCT ® Method 4", "setting": "[3]; Table 5, spiked plasma, 300 ng per ml", "value": 162.1, "unit": "s"},
      {"measurement": "Clotting time with PiCT ® Method 4", "setting": "[3]; Table 6, spiked plasma, 50 ng, mean", "value": 83.6, "unit": "s"},
      {"measurement": "Clotting time with PiCT ® Method 4", "setting": "[3]; Table 6, spiked plasma, 200 ng, mean", "value": 132.8, "unit": "s"},
      {"measurement": "Clotting time", "setting": "[3]; 5 ng/ml", "value": 71, "unit": "s"},
      {"measurement": "Clotting time", "setting": "[3]; 10 ng/ml", "value": 83, "unit": "s"},
      {"measurement": "Clotting time", "setting": "[3]; 50 ng/ml", "value": 118, "unit": "s"},
      {"measurement": "Clotting time", "setting": "[3]; 100 ng/ml", "value": 149, "unit": "s"},
      {"measurement": "Clotting time", "setting": "[3]; 200 ng/ml", "value": 191, "unit": "s"},
      {"measurement": "Clotting time", "setting": "[3]; 300 ng/ml", "value": 220, "unit": "s"},
      {"measurement": "Clotting time", "setting": "[3]; 400 ng/ml", "value": 248, "unit": "s"},
      {"measurement": "Clotting time", "setting": "[3]; 500 ng/ml", "value": 270, "unit": "s"},
      {"measurement": "Clotting time", "setting": "[3]; 600 ng/ml", "value": 278, "unit": "s"},
      {"measurement": "PiCT ® method 4 clotting time", "setting": "[3]; spiked plasma, 20 ng/mL (wash off level)", "value": "70 sec (n = 3)"},
      {"measurement": "PiCT ® method 4 clotting time", "setting": "[3]; spiked plasma, 35 ng/mL (wash off level)", "value": "80 sec (n = 3)"}
    ]}
  ]
}
